This is an account of results in patent publication US11883194B2, “Method and system for measuring, predicting, and optimizing human cognitive performance” (priority 2015, dated 2024).

This data set is described as follows: caffeine effect (gPD) parameters of the alertness model for PVT performance. The class given is in vivo, human. The conditions noted are these: beginning model parameter value (standard error). The source says: In at least one embodiment, the model is as follows: Pc(t)=(S(t)+κC(t))*gPD(t,c) (1) where C and S denote the circadian and homeostatic processes of the two-process model at time t, respectively, and κ represents the circadian amplitude.
M0, k0, z, and ka denote an amplitude slope, a basal elimination rate, a decay constant, and an absorption rate, respectively.

Consider `Cn1c(=O)c2c(ncn2C)n(C)c1=O` [caffeine], for which, under “PVT lapse statistic”, the “M0 (amplitude slope)” value was 9.86 (1.80) g^−1, the “Z (decay constant)” value was 1.63 (1.61) g^−1, the “k0 (basal elimination rate)” value is 0.49 (0.17) h^−1 and the “ka (capsule) (absorption rate)” value is listed as 2.06 (0.36) h^−1. Also, where the note is “PVT mean RT statistic”, the “M0 (amplitude slope)” value was 3.59 (0.66) g^−1, the “Z (decay constant)” value was 1.63 (1.61) g^−1, the “k0 (basal elimination rate)” value is 0.49 (0.17) h^−1 and the “ka (capsule) (absorption rate)” value is listed as 2.06 (0.36) h^−1.
